Results from the supplement of paper PMC10307832.

How the values were obtained:
Assay in all cases: relative viability (nuclei count vs DMSO), 5 days (fraction); higher = more cells survive
Serdemetan = compound: c1ccc2c(CCNc3ccc(Nc4ccncc4)cc3)c[nH]c2c1 [Serdemetan]
Outline: (§1)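 Hoechst staining, done together with fixation and permeabilisation, marked nuclei for 4× imaging and MetaXpress counting. This followed 5 days without medium change after lung cancer cell lines, kept overnight at 37 °C in 1536-well plates, were pinned with five library-drug doses (not always all listed) spaced by √10 on vehicle-anchored plates. Viability is the ratio of treated-well to vehicle-well nuclei, expressed as a median across plates. Plates passed only at control CV below 25% with at least one doubling.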

Selisistat = compound: C1CC(C2=C(C1)C3=C(N2)C=CC(=C3)Cl)C(=O)N [Selisistat]
Outline: as §1

Selisistat + Navitoclax = compound: C1CC(C2=C(C1)C3=C(N2)C=CC(=C3)Cl)C(=O)N [Selisistat] + CC1(C)CCC(c2ccc(Cl)cc2)=C(CN2CCN(c3ccc(C(=O)NS(=O)(=O)c4ccc(N[C@H](CCN5CCOCC5)CSc5ccccc5)c(S(=O)(=O)C(F)(F)F)c4)cc3)CC2)C1 [Navitoclax] (partner 0.5 µM)
Outline: (§2)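 After 5 days of treatment, lung cancer cells in 1536-well plates were fixed and stained in a single step (final 0.05% Triton X-100, 1% formaldehyde, 1 ug/ml Hoechst) and their nuclei counted on 4× images. Treatment had been applied by pin tool the day after seeding as one drug alone or as a fixed anchor-drug dose with five library-drug doses (not always all listed) in √10 steps. Relative viability is the nuclei count of treated wells divided by that of vehicle wells, and values are medians of duplicate plates.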

Serdemetan + Tozasertib = compound: c1ccc2c(CCNc3ccc(Nc4ccncc4)cc3)c[nH]c2c1 [Serdemetan] + Cc1cc(Nc2cc(N3CCN(C)CC3)nc(Sc3ccc(NC(=O)C4CC4)cc3)n2)n[nH]1 [Tozasertib] (partner 0.1 µM)
Outline: as §2

## UMC-11
Serdemetan; 0.04 µM
  relative viability: 0.935
Serdemetan; 0.1265 µM
  relative viability: 1.01
Serdemetan; 0.4 µM
  relative viability: 0.902
Serdemetan; 1.265 µM
  relative viability: 0.661
Serdemetan; 4 µM
  relative viability: 0.924
Selisistat; 0.4 µM
  relative viability: 1
Selisistat; 1.265 µM
  relative viability: 0.962
Selisistat; 4 µM
  relative viability: 0.883
Selisistat; 12.65 µM
  relative viability: 0.978
Selisistat; 40 µM
  relative viability: 1.06
Selisistat + Navitoclax; first compound 0.4 µM
  relative viability: 0.296
Selisistat + Navitoclax; first compound 1.265 µM
  relative viability: 0.294
Selisistat + Navitoclax; first compound 4 µM
  relative viability: 0.276
Selisistat + Navitoclax; first compound 12.65 µM
  relative viability: 0.316
Selisistat + Navitoclax; first compound 40 µM
  relative viability: 0.332
Serdemetan + Tozasertib; first compound 0.04 µM
  relative viability: 0.224
Serdemetan + Tozasertib; first compound 0.1265 µM
  relative viability: 0.199
Serdemetan + Tozasertib; first compound 0.4 µM
  relative viability: 0.208
Serdemetan + Tozasertib; first compound 4 µM
  relative viability: 0.233
